# Test results from US4529602A, “Method for treatment or prophylaxis of gastro-intestinal disease” (priority 1981, dated 1985).
# Where a name gives a salt, the structure may show the parent alone.
# Assays:
# [1] = tested on: pepsin secretion; assay: Preventive effect on pepsin secretion in pylorus-ligated rats; format: in vivo, Male SD-strain rats; details: 100 mg/kg oral, 5 h after administration, hydrate
# Protocol: (§1) Preventive effect on acid and pepsin secretions
# (§2) Male SD-strain rats (6 to 7 weeks old) were starved for 48 hours, and then the pylori were ligated. Immediately after ligation, a solution or suspension of a test compound in distilled water was administered orally into the stomachs in an amount of 0.2 ml per 100 g of body weight (Dose: 100 mg/kg). Five hours after said administration of the test compound, the rats were sacrificed and the stomachs were removed. The gastric contents were centrifuged at 2,500 rpm for 10 minutes and the gastric juice was collected as the supernatant. The concentration of pepsin in the gastric juice was determined by Anson's method (c.f., J. Gen. Physiol., 22, pp. 77-89 (1938)) using hemoglobin as the substrate, and the preventive effect of the test compound on the pepsin secretion was estimated in terms of "decrease in pepsin concentration" according to the following formula: [formula]
# [2] = tested on: gastric acid secretion; assay: Preventive effect on gastric acid secretion in pylorus-ligated rats; format: in vivo, Male SD-strain rats; details: 100 mg/kg oral, 5 h after administration, hydrate
# Protocol: as §1, §2
# On the other hand, the concentration of free acid in the gastric juice was determined by titrating said gastric juice to pH 7.0 with 0.1N NaOH, and the preventive effect of the test compound on the gastric acid secretion was estimated in terms of "the decrease in acidity of gastric juice" according to the following formula: [formula] (Results)
# [3] = tested on: Shay rat ulcers; assay: Effect on Shay rat ulcers (pylorus-ligated); format: in vivo, Male SD-strain rats; details: 17 h
# Protocol: Male SD-strain rats (6 to 7 weeks old) were starved for 48 hours and then the pylori were ligated. Immediately after ligation, a solution or suspension of a test compound in distilled water was administered orally into the stomachs in an amount of 0.2 ml per 100 g of body weight (Dose: 200 or 300 mg/kg). Seventeen hours after the administration of the test compound, the degree of ulceration in forestomach was examined according to the method of Takagi et al (Chem. Pharm. Bull., 11(10), pp. 1282-1290 (1963)) with a modified scoring system. Depending on the diameter of each lesions, the ulcers were classified into the following 4 grades. Ulcer index was calculated by the sum of the number of ulcers in each degree multiplied by respective ulcer score. Further, based on the ulcer index determined above, the preventive effect of the test compound on Shay rat ulcer was calculated by the following formula: [formula] (Results)
# [4] = tested on: gastric mucus secretion; assay: Effect on gastric mucus secretion (alcian blue binding); format: in vivo, Male Sprague-Dawley rats; details: 100 mg/kg oral, 1 h, hydrate; for Alcian blue binding: control (water) 198.5 ± 6.4
# Protocol: Stimulating effect of a test compound on gastric mucus secretion was examined by the method of Corne et al. (J. Physiol., 242, pp. 116-117(1974); J. Pharm. Pharmacol., 33, pp. 348-352(1981)). Male Sprague-Dawley rats (6-7 weeks old; one group: 6 rats) were fasted for 20 hours before the experiments. Water was given ad libitum and coprophagy was prevented by using cages with wide-mesh floors. A test compound dissolved or suspended in distilled water was administered orally to the rats at a dose of 100 mg/kg. One hour after the administration of the test compound, the stomachs were dissected, opened along the greater curvature, rinsed in ice-cold 0.25M sucrose, and the rumen was discarded. Then, the stomachs were incubated in 10 ml of a 0.15M sucrose-0.05M sodium acetate solution (pH 5.8) containing alcian blue (1 mg/ml), at room temperature for 1.5 hours. Finally, the stomachs were placed in 15 ml of a 0.5M magnesium chloride solution for 2 hours with occasional shaking and then removed, and the magnesium chloride solution was shaken briefly with 10 ml of diethyl ether. The optical density of the aqueous layer was read at 605 nm, and the degree of alcian blue binding was expressed as μg alcian blue/g of tissue. The stimulating effect of the test compound on gastric mucus secretion was estimated in terms of "the increase in alcian blue binding" which was calculated by the following formula: [formula] (Results)
# [5] = tested on: gastric mucous membrane; assay: Protective effect on gastric mucous membrane (excised stomach in artificial gastric juice); set-up: species or system Male Sprague-Dawley rats; details: 37° C., 60 min; for Amount of tyrosine: control 2.42 ± 0.15; for Amount of tyrosine / Inhibition (%) of digestion of mucous membrane: hydrate
# Protocol: Protective effect of a test compound on gastric mucous membrane was examined by the method of Diago et al. (Yakugaku Zasshi, 101, 452-457(1981)). Male Sprague-Dawley rats (6-7 weeks old; one group: 5 rats) were fasted for 20 hours before the experiments. Water was given ad libitum and coprophagy was prevented by using cages with wide-mesh floors. The stomach was excised, opened along the greater curvature, rinsed in physiological saline solution, and the rumen was discarded. The stomach was incubated in 10 ml of an artificial gastric juice (100 mM HCl, 0.3% pepsin, 0.2% NaCl) containing a test compound, at 37° C. for 60 minutes. After the incubation, 2 ml of 7% trichloroacetic acid were added to 0.5 ml of medium, and the mixture was centrifuged. The amount of tyrosine in the supernatant was measured by using Folin-Ciocelteu reagent (J. gen. Physiol., 16, 59-63(1932)), and expressed as mg tyrosine/g tissue. The protective effect of the test compound on gastric mucous membrane was estimated in terms of "the inhibition of digestion of mucous membrane" which was calculated by the following formula: [formula] (Results)
# [6] = tested on: urinary electrolytes; assay: Effect on urine volume and urinary electrolytes (Experiment 7); format: in vivo, Male SD-strain rats; details: for Urine volume: 5 h, 2 rats per cage, control 12.3; for Na/K: 5 h urine, control 5.8
# Protocol: Male SD-strain rats (6 to 7 weeks old) were starved overnight, and a physiological saline solution (3 ml/100 g of body weight) was orally administered to the rats. One hour later, a solution or suspension of a test compound in a 0.25% CMC-physiological saline solution was administered orally to the rats in an amount of 3 ml per 100 g of body weight (Dose: 50 and 500 mg/kg). Immediately after administration of the test compound, the rats were placed into metabolic cages (2 rats per cage) and deprived of water and food for 5 hours. The urine samples which were excreted during a 5 hour period were collected. Sodium and potassium in the urine were estimated by a flame photometer (Hitachi Model-205).
# [7] = tested on: rats; assay: Acute oral toxicity in rats (Experiment 10); format: in vivo; details: male SD-strain rats, 7 days, hydrate, 10080 min
# Protocol: (§3) After male SD-strain rats (6-7 weeks old) were starved for 20 hours, a solution or suspension of a test compound in distilled water was administered orally to the rats in an amount of one ml per 100 g of body weight. After administration of the test compound, the rats were allowed free access to water and food.
# [8] = in vivo; details: mouse, oral, male ddY-strain mice, 7 days
# Protocol: After male ddY-strain mice (4 weeks old) were starved for 4 hours, a suspension of a test compound in distilled water containing a small amount of Tween 80 was administered orally to the mice in an amount of 0.1 ml per 10 g of body weight. After administration of the test compound, the mice were allowed free access to water and food. […] As a result, the LD50 of sulfodehydroabietic acid calcium salt was more than 2,000 mg/kg.
# [9] = tested on: aspirin-induced ulcers; assay: Effect on aspirin-induced ulcers; format: in vivo, Male Donryu-strain rats; details: p.o. 0.8 m mol./kg (400 mg/kg); aspirin 200 mg/kg
# Protocol: Male Donryu-strain rats (8 to 9 weeks old) were starved overnight, and a solution or suspension of a test compound in distilled water was administered orally into the stomachs in an amount of one ml per 100 g of body weight. Half an hour later, a suspension of aspirin in 0.25% CMC solution was administered orally to the rats in an amount of 0.5 ml per 100 g of body weight (Dose: 200 mg/kg). Four hours after the administration of aspirin, the rats were sacrificed and the stomachs were removed and inflated by injecting 10 ml of 1% formalin solution to fix the inner layers of the gastric walls. The stomach was then incised along the greater curvature and the lengths of the lesions were measured and summated to give ulcer index (in mm) for each animal. The preventive effect of the test compound on aspirin-induced ulcers were calculated by the following formula: [formula] (Results)
# [10] = tested on: urinary electrolytes; assay: Effect on urinary electrolytes (Experiment 9); format: in vivo, Male SD-strain rats; details: for Urine volume: 4 h, control 6.5 ± 0.3; for Na/K ratio: 4 h urine, control 5.8 ± 0.6
# Protocol: Male SD-strain rats (6 to 7 weeks old, one group: 6 rats) were starved overnight, and a physiological saline solution (3 ml/100 g of body weight) was orally administered to the rats. One hour later, a suspension of a test compound in a physiological saline solution was administered orally to the rats in an amount of 3 ml per 100 g of body weight (Dose: 500 or 1,000 mg/kg). Immediately after administration of the test compound, the rats were placed into metabolic cages (one rat per cage) and deprived of water and food for 4 hours. The urine samples which were excreted during a 4 hour period were collected. Sodium and potassium in the urine were estimated by a flame photometer (Hitachi Model-205).
# [11] = Acute oral toxicity in rats (Experiment 10); format: in vivo; details: rat, in vivo, male SD-strain rats, 7 days
# Protocol: as §3
# [12] = 1 mg/ml in artificial gastric juice
# [13] = 4 mg/ml in artificial gastric juice
smiles,measurement,setting,value
"CC(C)c1cc2c(cc1S(=O)(=O)O)[C@@]1(C)CCC[C@@](C)(C(=O)O)[C@@H]1CC2 [Sulfodehydroabietic acid calcium salt, sulfodehydroabietic acid calcium salt 2.5 hydrate]",Decrease (%) in pepsin concentration,[1],99%
same,Decrease (%) in acidity of gastric juice,[2],30%
same,Preventive effect on Shay rat ulcers,[3]; 300 mg/kg oral,100%
same,Alcian blue binding,[4],284.7 ± 14.9 μg/g tissue
same,Increase (%) in alcian blue binding,[4],44%
same,Amount of tyrosine,[5]; [12],1.72 ± 0.08 mg/g tissue
same,Inhibition (%) of digestion of mucous membrane,[5]; [12],29%
same,Amount of tyrosine,[5]; [13],0.86 ± 0.04 mg/g tissue
same,Inhibition (%) of digestion of mucous membrane,[5]; [13],64%
same,Urine volume,[6]; 50 mg/kg oral,11.5 mL
same,Na/K,[6]; 50 mg/kg oral,5.2
same,Urine volume,[6]; 500 mg/kg oral,11.3 mL
same,Na/K,[6]; 500 mg/kg oral,6.8
same,LD50,[7],> 2000 mg/kg
same,LD50 at 168 h,[8],> 2000 mg/kg
"CC(C)c1cc2c(cc1S(=O)(=O)O)[C@@]1(C)CCC[C@@](C)(C(=O)O)[C@@H]1CC2 [Sulfodehydroabietic acid monosodium salt, 1,4a-dimethyl-1-carboxy-6-sulfo-7-isopropyl-1,2,3,4,4a,9,10,10a-octahydro-phenanthrene monosodium salt 5 hydrate]",Decrease (%) in pepsin concentration,[1],96%
same,Decrease (%) in acidity of gastric juice,[2],43%
same,Preventive effect on Shay rat ulcers,"[3]; 200 mg/kg oral, hydrate",100%
same,Preventive effect on aspirin-induced ulcers,[9],68%
same,Alcian blue binding,[4],287.3 ± 34.2 μg/g tissue
same,Increase (%) in alcian blue binding,[4],45%
same,Amount of tyrosine,[5]; [12],1.61 ± 0.13 mg/g tissue
same,Amount of tyrosine,[5]; [13],0.95 ± 0.07 mg/g tissue
same,inhibition at 1000 µg/mL,"[5]; Rattus norvegicus, 1 h, 1 mg/ml in artificial gastric juice, read-out: Inhibition (%) of digestion of mucous membrane",33%
same,inhibition at 4000 µg/mL,"[5]; Rattus norvegicus, 1 h, 4 mg/ml in artificial gastric juice, read-out: Inhibition (%) of digestion of mucous membrane",61%
same,Urine volume,[10]; 500 mg/kg oral,6.2 ± 0.5 mL
same,Na/K ratio,[10]; 500 mg/kg oral,5.6 ± 0.5
same,Urine volume,[10]; 1000 mg/kg oral,4.7 ± 0.4 mL
same,Na/K ratio,[10]; 1000 mg/kg oral,5.9 ± 0.2
same,change in urinary sodium-potassium ratio,"[10]; 500 or 1000 mg/kg oral, rats, in words",no substantial change in urinary sodium-potassium ratio
same,LD50 at 168 h,[11],> 2000 mg/kg
